Results as given in patent US11427548B2 (Arvinas Operations, Inc., priority 2015, dated 2022).
Where two headings read alike, the source gives them in different places.

Molecular target: T1, Androgen Receptor (Homo sapiens, UniProt P10275)
T1 construct: endogenous in cells; host or cells: VCaP cells
T1 sequence (P10275 1-920): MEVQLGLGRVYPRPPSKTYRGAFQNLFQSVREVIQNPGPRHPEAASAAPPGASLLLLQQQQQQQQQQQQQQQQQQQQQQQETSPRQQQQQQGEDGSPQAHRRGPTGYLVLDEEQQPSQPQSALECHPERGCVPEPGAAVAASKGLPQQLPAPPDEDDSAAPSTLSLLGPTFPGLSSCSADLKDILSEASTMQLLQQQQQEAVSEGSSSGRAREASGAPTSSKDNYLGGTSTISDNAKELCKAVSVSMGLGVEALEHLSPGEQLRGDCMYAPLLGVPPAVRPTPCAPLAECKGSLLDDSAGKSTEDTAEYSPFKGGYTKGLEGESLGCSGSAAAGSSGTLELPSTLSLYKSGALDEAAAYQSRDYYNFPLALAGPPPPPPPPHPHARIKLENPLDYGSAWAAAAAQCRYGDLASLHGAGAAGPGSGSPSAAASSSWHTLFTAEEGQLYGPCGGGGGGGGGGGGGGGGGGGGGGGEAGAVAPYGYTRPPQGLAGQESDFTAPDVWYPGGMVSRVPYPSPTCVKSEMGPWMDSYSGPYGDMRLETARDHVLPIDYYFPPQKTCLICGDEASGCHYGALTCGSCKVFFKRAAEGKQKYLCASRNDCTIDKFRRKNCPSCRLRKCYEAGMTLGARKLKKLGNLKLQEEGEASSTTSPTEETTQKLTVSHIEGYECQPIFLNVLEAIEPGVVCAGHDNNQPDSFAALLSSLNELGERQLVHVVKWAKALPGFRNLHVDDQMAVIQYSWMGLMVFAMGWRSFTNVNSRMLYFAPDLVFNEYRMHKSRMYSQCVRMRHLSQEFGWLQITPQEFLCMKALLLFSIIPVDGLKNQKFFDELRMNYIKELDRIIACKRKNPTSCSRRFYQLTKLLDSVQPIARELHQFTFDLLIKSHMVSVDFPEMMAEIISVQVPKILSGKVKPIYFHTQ
Assay: Androgen Receptor ELISA assay (PathScan AR ELISA) in VCaP cells: AR degradation, Dmax and DC50
Assay type: cell-based
Method in brief: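 VCaP cells in phenol red-free RPMI with 5% charcoal-stripped FBS were grown at least 3 days, then given compound as 7 half-log doses in 0.1% DMSO with 0.1 nM R1881 for 24 h. Lysates went into a sandwich AR ELISA with TMB read at 450 nm.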

[1] = read-out: VCaP DC50; concentration that caused 50% Androgen Receptor degradation, VCaP cells (Table 32)
[2] = VCaP cells; Table 36; read-out: VCaP DC50
[3] = VCaP, VCaP cells; Table 36; read-out: VCaP Dmax (%)
[4] = VCaP cells; Table 35; read-out: VCaP DC50
[5] = VCaP, VCaP cells; Table 35; read-out: VCaP Dmax (%)

SMILES: CC(C)(C)[C@H](NC(=O)COCCCOCCCCCOc1ccc(N2C(=S)N(c3ccc(C#N)c(C(F)(F)F)c3)C(=O)C2(C)C)cc1)C(=O)N1C[C@H](O)C[C@H]1C(=O)NCc1ccc(C#N)cc1 [Example 15, (2S,4R)-1-[(2S)-2-[2-(3-{[5-(4-{3-[4-cyano-3-(trifluoromethyl)phenyl]-5,5-dimethyl-4-oxo-2-sulfanylideneimidazolidin-1-yl}phenoxy)pentyl]oxy}propoxy)acetamido]-3,3-dimethylbutanoyl]-N-[(4-cyanophenyl)methyl]-4-hydroxypyrrolidine-2-carboxamide]
- Dmax (VCaP, read-out: VCaP Dmax (%)): 26 to 50%
- DC50 (read-out: VCaP DC50; concentration that caused 50% Androgen Receptor degradation, VCaP cells): < 50 nM

SMILES: Cc1ncoc1-c1ccc(CNC(=O)[C@@H]2C[C@@H](O)CN2C(=O)[C@@H](NC(=O)COCCCCOc2ccc(-c3ccc(N4C(=S)N(c5ccc(C#N)c(Cl)c5)C(=O)C4(C)C)cc3)cc2)C(C)(C)C)cc1 [Example 110, (2S,4R)-1-[(2S)-2-{2-[4-(4-{4-[3-(3-chloro-4-cyanophenyl)-5,5-dimethyl-4-oxo-2-sulfanylideneimidazolidin-1-yl]phenyl}phenoxy)butoxy]acetamido}-3,3-dimethylbutanoyl]-4-hydroxy-N-{[4-(4-methyl-1,3-oxazol-5-yl)phenyl]methyl}pyrrolidine-2-carboxamide]
- Dmax (VCaP, read-out: VCaP Dmax (%)): > 71%
- DC50 [1]: < 50 nM

SMILES: Cc1ncsc1-c1ccc(CNC(=O)[C@@H]2C[C@@H](O)CN2C(=O)[C@H](C(C)C)N2Cc3ccccc3C2=O)c(OCCN2CCN(c3ccc(C(=O)N[C@H]4C(C)(C)[C@H](Oc5ccc(C#N)c(C(F)(F)F)c5)C4(C)C)cn3)CC2)c1 [Example 733, N-((1r,3r)-3-(4-cyano-3-(trifluoromethyl)phenoxy)-2,2,4,4-tetramethylcyclobutyl)-6-(4-(2-(2-(((2S,4R)-4-hydroxy-1-((S)-3-methyl-2-(1-oxoisoindolin-2-yl)butanoyl)pyrrolidine-2-carboxamido)methyl)-5-(4-methylthiazol-5-yl)phenoxy)ethyl)piper-azin-1-yl)nicotinamide]
- DC50 [2]: < 50 nM
- Dmax [3]: > 71%

SMILES: CC(C)(C)[C@H](NC(=O)COCCCCOc1ccc(-c2ccc(N3C(=S)N(c4ccc(C#N)c(C(F)(F)F)c4)C(=O)C3(C)C)c(F)c2)cc1)C(=O)N1C[C@H](O)C[C@H]1C(=O)NCc1ccc(-c2cncs2)cc1 [Example 117, (2S,4R)-1-[(2S)-2-(2-{4-[4-(4-{3-[4-cyano-3-(trifluoromethyl)phenyl]-5,5-dimethyl-4-oxo-2-sulfanylideneimidazolidin-1-yl}-3-fluorophenyl)phen-oxy]butoxy}acetamido)-3,3-dimethylbutanoyl]-4-hydroxy-N-{[4-(1,3-thiazol-5-yl)phenyl]methyl}pyrrolidine-2-carboxamide]
- Dmax (VCaP, read-out: VCaP Dmax (%)): > 71%
- DC50 [1]: < 50 nM

SMILES: CC(C)(C)[C@H](NC(=O)COCCCCOc1ccc(-c2ccc(N3C(=S)N(c4ccc(C#N)c(Cl)c4)C(=O)C3(C)C)c(F)c2)cc1)C(=O)N1C[C@H](O)C[C@H]1C(=O)NCc1ccc(-c2cncs2)cc1 [Example 108, (2S,4R)-1-[(2S)-2-{2-[4-(4-{4-[3-(3-chloro-4-cyanophenyl)-5,5-dimethyl-4-oxo-2-sulfanylideneimidazolidin-1-yl]-3-fluorophenyl}phen-oxy)butoxy]acetamido}-3,3-dimethylbutanoyl]-4-hydroxy-N-{[4-(1,3-thiazol-5-yl)phenyl]methyl}pyrrolidine-2-carboxamide]
- Dmax (VCaP, read-out: VCaP Dmax (%)): > 71%
- DC50 [1]: < 50 nM

SMILES: CNC(=O)[C@H]1CCCN1C(=O)C(NC(=O)COCCN1CCN(c2ccc(C(=O)N[C@H]3C(C)(C)[C@H](Oc4ccc(C#N)c(Cl)c4)C3(C)C)cn2)CC1)C(C)(C)C (stereo partly drawn) [Example 700, N-((1r,3r)-3-(3-chloro-4-cyanophenoxy)-2,2,4,4-tetramethylcyclobutyl)-6-(4-(2-(2-(((S)-3,3-dimethyl-1-((S)-2-(methylcarbamoyl)pyrroli-din-1-yl)-1-oxobutan-2-yl)amino)-2-oxoethoxy)ethyl)pipera-zin-1-yl)nicotinamide]
- DC50 [2]: > 501 nM
- Dmax [3]: < 25%

SMILES: Cc1ncsc1-c1ccc([C@H](C)NC(=O)[C@@H]2C[C@@H](O)CN2C(=O)[C@H](c2cc(CCCCN3CCN(c4ccc(C(=O)N[C@H]5C(C)(C)[C@H](Oc6ccc(C#N)c(Cl)c6)C5(C)C)cn4)CC3)no2)C(C)C)cc1 [Example 830, N-((1r,3r)-3-(3-chloro-4-cyanophenoxy)-2,2,4,4-tetramethylcyclobutyl)-6-(4-(4-(5-((S)-1-((2S, 4R)-4-hydroxy-2-(((S)-1-(4-(4-methylthiazol-5-yl)phenyl)ethyl)carbamoyl)pyrrolidin-1-yl)-3-methyl-1-oxobutan-2-yl)isoxazol-3-yl)butyl)piperazin-1-yl)nicotinamide]
- DC50 [2]: > 501 nM
- Dmax (VCaP, read-out: VCaP Dmax (%), VCaP cells; Table 36): < 25%

SMILES: Cc1ncsc1-c1ccc([C@H](C)NC(=O)[C@@H]2C[C@@H](O)CN2C(=O)[C@@H](NC(=O)COCCCCCNc2ccc(C(=O)N(C)[C@H]3C(C)(C)[C@H](Oc4ccc(C#N)c(Cl)c4)C3(C)C)cc2)C(C)(C)C)cc1 [Example 473]
- DC50 [4]: < 50 nM
- Dmax [5]: 26 to 50%

SMILES: Cc1ncoc1-c1ccc(CNC(=O)[C@@H]2C[C@@H](O)CN2C(=O)[C@@H](NC(=O)CNCCCCCOc2ccc(C(=O)N[C@H]3C(C)(C)[C@H](Oc4ccc(C#N)c(Cl)c4)C3(C)C)cc2)C(C)(C)C)cc1 [Example 189, (2S,4R)-1-[(2S)-3,3-dimethyl-2-(2-{[5-(4-{[trans-3-(3-chloro-4-cyanophenoxy)-2,2,4,4-tetramethylcyclobutyl]carbamoyl}phenoxy)pentyl]amino}acetamido)butanoyl]-4-hydroxy-N-{[4-(4-methyl-1,3-oxazol-5-yl)phenyl]methyl)pyrrolidine-2-carboxamide]
- Dmax (VCaP, highest percentage of Androgen Receptor degradation observed, VCaP cells (Table 32); read-out: VCaP Dmax (%)): 51 to 70%
- DC50 (concentration that caused 50% Androgen Receptor degradation, VCaP cells (Table 32); read-out: VCaP DC50): < 50 nM

SMILES: CC(C)C[C@H](OCCN1CCN(c2ccc(C(=O)N[C@H]3C(C)(C)[C@H](Oc4ccc(C#N)c(Cl)c4)C3(C)C)cn2)CC1)C(=O)N[C@H](C(=O)N1C[C@H](O)C[C@H]1C(=O)NCc1ccc(Cl)cc1)C(C)(C)C [Example 727, N-((1r,3r)-3-(3-chloro-4-cyanophenoxy)-2,2,4,4-tetramethylcyclobutyl)-6-(4-(2-(((S)-1-(((S)-1-((2S,4R)-2-((4-chlorobenzyl)carbamoyl)-4-hydroxypyrrolidin-1-yl)-3,3-dimethyl-1-oxobutan-2-yl)amino)-4-methyl-1-oxopentan-2-yl)oxy)ethyl)piperazin-1-yl)nicotinamide]
- DC50 [2]: > 501 nM
- Dmax [3]: < 25%

SMILES: CNC(=O)c1ccc(CNC(=O)[C@@H]2C[C@@H](O)CN2C(=O)[C@@H](NC(=O)COCCCCCNc2ccc(C(=O)N[C@H]3C(C)(C)[C@H](Oc4ccc(C#N)c(Cl)c4)C3(C)C)cc2)C(C)(C)C)cc1 [Example 511]
- DC50 [4]: < 50 nM
- Dmax [5]: 51 to 70%

SMILES: Cc1ncsc1-c1ccc([C@H](C)NC(=O)[C@@H]2C[C@@H](O)CN2C(=O)[C@H](C(C)C)n2cc(-c3ccnc(N4CC[C@@H](Nc5ccc(C(=O)N[C@H]6C(C)(C)[C@H](Oc7ccc(C#N)c(Cl)c7)C6(C)C)cc5)C4)c3)cn2)cc1 [Example 596, (2S,4R)-1-((S)-2-(4-(2-((R)-3-((4-(((1r,3R)-3-(3-chloro-4-cyanophenoxy)-2,2,4,4-tetramethylcyclobutyl)carbamoyl)phenyl)amino)pyrrolidin-1-yl)pyridin-4-yl)-1H-pyrazol-1-yl)-3-methylbutanoyl)-4-hydroxy-N-((S)-1-(4-(4-methylthiazol-5-yl)phenyl)ethyl)pyrroli-dine-2-carboxamide]
- DC50 [2]: > 501 nM
- Dmax [3]: 26 to 50%

SMILES: Cc1ncsc1-c1ccc(CNC(=O)[C@@H]2C[C@@H](O)CN2C(=O)[C@@H](C(C)C)n2cc(OC3CCN(c4ccc(-c5ccc(N6C(=S)N(c7ccc(C#N)c(C(F)(F)F)c7)C(=O)C6(C)C)cc5)cn4)CC3)cn2)cc1 [Example 599, (2S,4R)-1-((R)-2-(4-((1-(5-(4-(3-(4-cyano-3-(trifluoromethyl)phenyl)-5,5-dimethyl-4-oxo-2-thioxoimidazolidin-1-yl)phenyl)pyridin-2-yl)piperidin-4-yl)oxy)-1H-pyrazol-1-yl)-3-methylbutanoyl)-4-hydroxy-N-(4-(4-methylthiazol-5-yl)benzyl)pyrrolidine-2-carboxamide]
- Dmax (VCaP, read-out: VCaP Dmax (%)): 26 to 50%
- DC50 (read-out: VCaP DC50; VCaP cells; Table 36): > 501 nM
